The results in this text go back to patent publication US20060154919A1, “Combination of a glycine transporter (GLYT1) inhibitor and an antipsychotic for the treatment of symptoms of schizophrenia as well as its preparation and use thereof” (priority 2004, published 2006).

Assay [1] deals with extracellular glycine in the striatum. Description: Microdialysis: extracellular glycine in the rat striatum. It is filed as in vivo. Particulars: for dose-response of extracellular glycine: ascending doses (COMPOUND NO. 1 0.63, 2.5, 10 mg/kg; risperidone 0.16, 0.63, 2.5 mg/kg). As to the method:
(§1) Compounds (as a Na salt) were stored, dissolved, and administered according to detailed instructions accompanying each compound. Compounds were dissolved in a solvent consisting of 10% BCD (beta cyclodextrin) and administered subcutaneously.
(§2) Male Sprague Dawley rats weighing 275-325 g at the start of the experiment were individually housed in a temperature-controlled colony room with a 12-h light/dark cycle. Food and water was available ad libitum throughout the experiment. The housing conditions and care of the animals were in accordance with the “Guide for the Care and Use of Laboratory Animals” (Institute of Laboratory Animal Resources on Life Sciences, National Research Council, 1996).
(§3) Guide cannula were stored in 95% ETOH prior to surgery, whereas surgical tools underwent heat sterilization (250 °C) immediately before each surgery. Rats were anesthetized using a ketamine hydrochloride (100 mg/kg, IP) xylazine (12 mg/kg) mixture. After adequate anesthesia had been determined (using toe and tail pinch procedures), rats were placed into a stereotaxic instrument. The skull region was wiped with a 2% Betadine solution and a rostrocaudal incision was made to expose the surface of the skull. Bilateral guide cannula (20 gauge; Plastics One) were chronically implanted over the medial striatum (A/P: +0.5, M/L: ±2.5, D/V: −2.0; Paxinos & Watson, 1998) and secured using four skull screws and cranioplastic cement. The cannula need to be implanted at an angle to obtain the minimum inter-cannula distance needed for our probe leash used during microdialysis sampling. Following surgery, body temperature was maintained using a heating pad and the rats were monitored until fully conscious. Rats were then individually housed and assessed daily by monitoring general activity, body weight, and feces. Rats were monitored for signs of an infection and cefazolin (100 mg/kg; intramuscular) was available as needed. Notation was made of any animal administered antibiotic.
(§4) Rats were given at least five days to recover prior to microdialysis sampling. Approximately 18 hr prior to sampling, a microdialysis probe (24 gauge; 2-3 mm exposed membrane; 13000 MWCO) encased in a spring leash and attached to a liquid swivel connected to a balancing arm was inserted into the guide cannula of an awake rat. The probe was secured in place by screwing a threaded portion of the probe leash onto the guide cannula. The rat was then placed into a behavioral chamber (Omnitech, Columbus Ohio) equipped with a fan and house light (10W), and food and water was available ad libitum. On the day of the experiment, dialysis buffer consisting of 5 mM glucose, 140 mM NaCl, 1.4 mM CaCl2, 1.2 mM MgCl2, and 0.15% phosphate buffer saline, pH 7.4, was perfused through the probe (2.0 μl/min) at least two hr prior to sample collection. Twenty-min dialysis samples were then collected for two hr to determine basal glycine levels. Rats were then injected (intraperitoneal) with vehicle or one dose of the test compound, and 30-min samples were collected for up to 10 hr. Samples were split for separate chromatographic evaluation of glycine and dopamine, and frozen (−80 °C) until analyzed.
(§5) Rats, with the dialysis probes in place, were given an overdose of pentobarbital, and the brains fixed by intracardiac infusion of PBS-formalin. Coronal brain sections were 100 μM thick and stained with cresyl violet to verify probe placements. Probes were left in place as the animal was perfused in order to check for the presence of blood in the probe tract.
The concentrations of glycine and dopamine in dialysate samples was determined using a Waters Alliance 2690 HPLC system with fluorometeric detection or an ESA coulometric electrochemical detection HPLC system, respectively. Dialyis samples were split between the two systems enabling both dopamine and glycine to be measured in each sample. A Waters Spherisorb ODS2 column (5 μM, 4.6×250 mm) was used to separate the amino acids.

In assay [2] the test system is extracellular dopamine in the striatum. Description: Microdialysis: extracellular dopamine in the rat striatum. It counts as in vivo. The following applies: for dose-response of extracellular dopamine: ascending doses (COMPOUND NO. 1 0.63, 2.5, 10 mg/kg; risperidone 0.16, 0.63, 2.5 mg/kg). As to the method: as §1, §2, §3, §4, §5
For dopamine analysis, samples were placed in an ESA (Chelmsford, Mass.) Model 540 autosampler connected to an HPLC system with electrochemical detection. Separation was achieved by pumping the samples through a 15 cm C18 reversed phase column (ESA, Inc.) and then samples were reduced/oxidized using coulometric detection.

Where [3] appears, read: risperidone alone, 0.16 mg/kg (lowest dose).
Where [4] appears, read: COMPOUND NO. 1 alone, 10 mg/kg (highest dose), 10 mg/kg.

“Also recorded” adds a separate entry of the source.

Take `Cc1nc2n(c(=O)c1CCN1CCC(c3noc4cc(F)ccc34)CC1)CCCC2` [risperidone, 3-[2-[4-(6-fluoro-1,2-benzisoxazol-3-yl)piperidino]ethyl]-2-methyl-6,7,8,9-tetrahydro-4H-pyrido-[1,2-a]pyrimidin-4-one, reference compound]: in assay [1], the “dose-response of extracellular glycine” value was “dose-dependent elevation”. Besides, the “threshold dose for elevation in extracellular glycine” value in assay [1] (risperidone alone) turned out to be 0.16 mg/kg. The “effect on extracellular glycine” value in assay [1] (setting [3]) is given as “without effect”; in assay [1] (risperidone alone, at the dose examined in the combination (1.0 mg/kg)), “modest rise”. In addition, in assay [1] (risperidone alone, 2.5 mg/kg (highest dose)), the “increase in extracellular glycine” value is recorded as 2.5 fold. The “dose-response of extracellular dopamine” value in assay [2] is listed as “dose-dependent elevation”. For the same compound, the “threshold dose for elevation in extracellular dopamine” value in assay [2] (risperidone alone) was found to be 0.16 mg/kg. Further, in assay [2] (setting [3]), the “elevation in extracellular dopamine” value is recorded as “approximately 50%”. Besides, in assay [2] (risperidone alone, 1.0 mg/kg, expected from FIGS. 1C-1D), the “expected increase in extracellular dopamine” value is on record as 300%. Further, in assay [2] (risperidone alone, two higher doses (0.63 and 2.5 mg/kg)), the “increase in extracellular dopamine” value is 3-4 fold.
`CN(C/C=C(/C#Cc1ccc(-c2ccoc2)cc1)c1ccccc1)CC(=O)O` [COMPOUND NO. 1]: the “increase in extracellular glycine” value in assay [1] (setting [4]) worked out at 2.5 fold. Moreover, the “dose-response of extracellular glycine” value in assay [1] was “dose-dependent increase; also recorded: dose-dependent elevation”. Also, in assay [2] (COMPOUND NO. 1 alone, 0.63 mg/kg (lowest dose)), the “reduction in extracellular dopamine” value is recorded as about 50%. The “effect on extracellular dopamine” value is “significant reduction; also recorded: reduced extracellular dopamine” in assay [2] (COMPOUND NO. 1 alone, 0.63 mg/kg (lowest dose), 0.63 mg/kg); “normalized; also recorded: returned to normal” in assay [2] (COMPOUND NO. 1 alone, 2.5 mg/kg); “remained unaltered; also recorded: without effect” in assay [2] (setting [4]). Further, the “dose-response of extracellular dopamine” value in assay [2] is given as “biphasic”.
